Target: T1, SS-bgly (β-glycosidase from Sulfolobus solfataricus) (Saccharolobus solfataricus, UniProt P22498)
T1 construct: gene lacS; full-length gene from genomic DNA in pET-24a, NdeI/BamHI, own stop codon, no tag; E. coli ER2566; heat-treated soluble enzyme (75°C)
T1 sequence (P22498 1-489): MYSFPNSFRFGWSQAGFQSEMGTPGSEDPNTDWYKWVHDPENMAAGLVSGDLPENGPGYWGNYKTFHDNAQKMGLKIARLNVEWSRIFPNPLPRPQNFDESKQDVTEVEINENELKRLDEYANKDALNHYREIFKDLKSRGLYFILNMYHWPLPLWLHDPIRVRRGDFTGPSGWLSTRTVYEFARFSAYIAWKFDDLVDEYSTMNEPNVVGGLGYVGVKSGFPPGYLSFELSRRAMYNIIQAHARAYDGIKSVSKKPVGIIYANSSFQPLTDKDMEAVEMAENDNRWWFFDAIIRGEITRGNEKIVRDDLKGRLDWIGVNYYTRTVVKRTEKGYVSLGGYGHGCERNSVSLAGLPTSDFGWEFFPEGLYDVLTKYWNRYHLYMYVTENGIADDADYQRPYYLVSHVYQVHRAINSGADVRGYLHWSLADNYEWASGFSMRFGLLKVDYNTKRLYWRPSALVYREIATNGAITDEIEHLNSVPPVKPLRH
Experiment: TLC of reaction products
Type: biochemical
Conditions: 80°C, pH 6.0 citrate/phosphate; SS-bgly alone; product C-Mc

CC(C)=CCC[C@](C)(O[C@@H]1O[C@H](CO[C@@H]2O[C@@H](CO)[C@H](O)[C@H]2O)[C@@H](O)[C@H](O)[C@H]1O)[C@H]1CC[C@]2(C)[C@@H]1[C@H](O)C[C@@H]1[C@@]3(C)CC[C@H](O[C@@H]4O[C@H](CO)[C@@H](O)[C@H](O)[C@H]4O[C@@H]4O[C@H](CO)[C@@H](O)[C@H](O)[C@H]4O)C(C)(C)[C@@H]3CC[C@]12C [Rc, ginsenoside Rc]
TLC of reaction products: whereas only C-Mc was obtained by SS-bgly alone

Source: PMC4692446, “Compound K Production from Red Ginseng Extract by β-Glycosidase from Sulfolobus solfataricus Supplemented with α-L-Arabinofuranosidase from Caldicellulosiruptor saccharolyticus” (PLoS ONE, 2015)
